Tested on: subjects with moderately to severely active RA who have an inadequate response to methotrexate (MTX)
Assay: Study 1 (add-on to MTX) - ACR responses (ACR20/50/70)
Format: in vivo, human
Source text: The terms “ACR20”, “ACR50” and “ACR70” as used herein are scores which indicate how much a patient's rheumatoid arthritis has improved according to criteria set out by the American College of Rheumatology (ACR). The ACR score represents a percentage. An ACR20 score means that a person's RA has improved by 20%, an ACR50 score means it has improved by 50%, and an ACR70 score means it has improved by 70%. Specifically, to qualify for an ACR20 score, a person with RA must have at least 20% fewer tender joints and at least 20% fewer swollen joints. In addition the patient must show a 20% improvement in at least three of the following five areas: the person's overall (global) assessment of his or her own RA, the physician's global assessment of the person's RA, the person's assessment of his or her own pain, the person's assessment of his or her own physical functioning, and the results of an erythrocyte sedimentation rate or C-reactive protein (CRP) blood test (both of which test for inflammation). ACR50 and ACR70 scores use the same criteria but require 50% and 70% improvement, respectively, (Felson et al., 1993). In the data presented herein the CRP blood test is used.
Double-blind, placebo-controlled add on study in subjects with moderately to severely active RA who have an inadequate response to methotrexate (MTX) (oral or parenteral).
595 subjects randomized to one of 6 dose regimens of Compound 1 (dosed as [Compound 1:HCl:3H2O]) (3 dose levels administered either once or twice daily) or placebo on top of each subject's stable dose of MTX.
Compound 1 (dosed as [Compound 1:HCl:3H2O]) is dosed for twelve weeks once daily (q.d.) (50 mg, 100 mg or 200 mg) or twice daily (b.i.d.) (25 mg, 50 mg or 100 mg); or placebo.
At Week 12, the subjects on placebo who have not achieved 20% improvement in swollen joint count (SJC66) and tender joint count (TJC68) are re-randomized automatically to receive Compound 1 (dosed as a [Compound 1:HCl:3H2O]) either at 100 mg q.d. or 50 mg b.i.d. doses in a blinded fashion; subjects on 50 mg q.d. who have not achieved 20% improvement in SJC66 and TJC68 will be assigned to 100 mg q.d. and subjects on 25 mg b.i.d. that have not achieved a 20% improvement in SJC66 and TJC68 will be assigned to 50 mg b.i.d. Subjects who switch treatment at week 12 are handled as if they discontinued at week 12 for the purpose of statistical analysis, whereas subjects in the other groups will maintain their randomized treatment until Week 24.
The American College of Rheumatology (ACR) composite score, which evaluates clinical improvement relative to an initial assessment, is a commonly accepted efficacy end point for clinical trials in patients with rheumatoid arthritis. The ACR score correspond to a percentage improvement in pre-set parameters, and therefore measures the evolution of the disease in a patient. For example, ACR20 denotes at least 20% improvement in tender and swollen joint counts and in three of the following end points: global assessment by the patient, global assessment by the doctor, C reactive protein (CRP), patient's pain Visual Analogue Scale and Health Assessment Questionnaire Score. The number of swollen joints, ESR and CRP correlate with radiographic progression of joint damage, whereas tender joint counts, as well as global assessments by doctors and patients, and patients' reports of pain, are sensitive to change in clinical outcomes. Physical function, as assessed by the Health Assessment Questionnaire Score, is a potent predictor of the risk of disability in rheumatoid arthritis (Felson and American College of Rheumatology Committee to Reevaluate Improvement Criteria, 2007; Felson et al., 1993).
In particular, the list of parameters used to assess ACR score can be found in the Table XCVI below and the results of the ACR responses at week 12 via either NRI or LOCF are shown in the tables below. The Hommel-corrected p-value for the pairwise comparisons of each group with placebo is shown. […]

[1] = 2 × 50 mg b.i.d., week 12, 12 weeks results
[2] = 2 × 50 mg b.i.d., week 12, 24 weeks results
[3] = 2 × 50 mg b.i.d., week 16, 24 weeks results
[4] = 2 × 50 mg b.i.d., week 20, 24 weeks results
[5] = 2 × 50 mg b.i.d., week 24, 24 weeks results
[6] = 2 × 50 mg b.i.d., at week 1, 12 weeks results
[7] = 2 × 50 mg b.i.d., at week 1, 24 weeks results
[8] = 2 × 100 mg b.i.d., week 2, 12 weeks results
[9] = 2 × 100 mg b.i.d., week 2, 24 weeks results
[10] = 2 × 100 mg b.i.d., week 4, 12 weeks results
[11] = 2 × 100 mg b.i.d., week 4, 24 weeks results
[12] = 2 × 100 mg b.i.d., week 8, 12 weeks results
[13] = 2 × 100 mg b.i.d., week 8, 24 weeks results
[14] = 2 × 100 mg b.i.d., week 12, 12 weeks results
[15] = 2 × 100 mg b.i.d., week 12, 24 weeks results
[16] = 2 × 100 mg b.i.d., week 16, 24 weeks results
[17] = 2 × 100 mg b.i.d., week 20, 24 weeks results
[18] = 2 × 100 mg b.i.d., week 24, 24 weeks results
[19] = 2 × 100 mg b.i.d., at week 1, 12 weeks results
[20] = 2 × 100 mg b.i.d., at week 1, 24 weeks results

Structure (SMILES): O=C(Nc1nc2cccc(-c3ccc(CN4CCS(=O)(=O)CC4)cc3)n2n1)C1CC1 [Compound 1, cyclopropanecarboxylic acid {5-[4-(1,1-dioxo-thiomorpholin-4-ylmethyl)-phenyl]-[1,2,4]triazolo[1,5-a]pyridin-2-yl}-amide]
- ACR70 (NRI) (2 × 50 mg b.i.d., week 8, 24 weeks results): 14.1%
- ACR20 (LOCF) [1]: 58.8%
- ACR20 (NRI) [1]: 58.8%
- ACR50 (LOCF) [1]: 34.1%
- ACR50 (NRI) [1]: 34.1%
- ACR70 (LOCF) [1]: 18.8%
- ACR70 (NRI) [1]: 18.8%
- ACR20 (LOCF) [2]: 60.0%
- ACR20 (NRI) [2]: 58.8%
- ACR50 (LOCF) [2]: 34.1%
- ACR50 (NRI) [2]: 34.1%
- ACR70 (LOCF) [2]: 18.8%
- ACR70 (NRI) [2]: 18.8%
- ACR20 (LOCF) [3]: 67.1%
- ACR20 (NRI) [3]: 64.7%
- ACR50 (LOCF) [3]: 32.9%
- ACR70 (LOCF) [3]: 21.2%
- ACR20 (LOCF) [4]: 68.2%
- ACR20 (NRI) [4]: 65.9%
- ACR50 (LOCF) [4]: 41.2%
- ACR70 (LOCF) [4]: 22.4%
- ACR20 (LOCF) [5]: 67.1%
- ACR20 (NRI) [5]: 60.0%
- ACR50 (LOCF) [5]: 38.8%
- ACR70 (LOCF) [5]: 24.7%
- ACR20 (LOCF) [6]: 22.4%
- ACR20 (NRI) [6]: 22.4%
- ACR50 (LOCF) [6]: 7.1%
- ACR50 (NRI) [6]: 7.1%
- ACR70 (LOCF) [6]: 2.4%
- ACR70 (NRI) [6]: 2.4%
- ACR20 (LOCF) [7]: 22.4%
- ACR20 (NRI) [7]: 22.4%
- ACR50 (LOCF) [7]: 7.1%
- ACR50 (NRI) [7]: 7.1%
- ACR70 (LOCF) [7]: 2.4%
- ACR70 (NRI) [7]: 2.4%
- ACR20 (LOCF) [8]: 53.6%
- ACR20 (NRI) [8]: 54.8%
- ACR50 (LOCF) [8]: 22.6%
- ACR50 (NRI) [8]: 21.4%
- ACR70 (LOCF) [8]: 4.8%
- ACR70 (NRI) [8]: 3.6%
- ACR20 (LOCF) [9]: 56.0%
- ACR20 (NRI) [9]: 54.8%
- ACR50 (LOCF) [9]: 22.6%
- ACR50 (NRI) [9]: 21.4%
- ACR70 (LOCF) [9]: 4.8%
- ACR70 (NRI) [9]: 3.6%
- ACR20 (LOCF) [10]: 67.9%
- ACR20 (NRI) [10]: 69.0%
- ACR50 (LOCF) [10]: 34.5%
- ACR50 (NRI) [10]: 35.7%
- ACR70 (LOCF) [10]: 9.5%
- ACR70 (NRI) [10]: 10.7%
- ACR20 (LOCF) [11]: 67.9%
- ACR20 (NRI) [11]: 67.9%
- ACR50 (LOCF) [11]: 34.5%
- ACR50 (NRI) [11]: 34.5%
- ACR70 (LOCF) [11]: 10.7%
- ACR70 (NRI) [11]: 10.7%
- ACR20 (LOCF) [12]: 75.0%
- ACR20 (NRI) [12]: 75.0%
- ACR50 (LOCF) [12]: 45.2%
- ACR50 (NRI) [12]: 45.2%
- ACR70 (LOCF) [12]: 26.2%
- ACR70 (NRI) [12]: 27.4%
- ACR20 (LOCF) [13]: 75.0%
- ACR20 (NRI) [13]: 75.0%
- ACR50 (LOCF) [13]: 45.2%
- ACR50 (NRI) [13]: 45.2%
- ACR70 (LOCF) [13]: 27.4%
- ACR70 (NRI) [13]: 27.4%
- ACR20 (LOCF) [14]: 79.8%
- ACR20 (NRI) [14]: 79.8%
- ACR50 (LOCF) [14]: 56.0%
- ACR50 (NRI) [14]: 54.8%
- ACR70 (LOCF) [14]: 29.8%
- ACR70 (NRI) [14]: 31.0%
- ACR20 (LOCF) [15]: 81.0%
- ACR20 (NRI) [15]: 79.8)
- ACR50 (LOCF) [15]: 57.1%
- ACR50 (NRI) [15]: 54.8%
- ACR70 (LOCF) [15]: 31.0%
- ACR70 (NRI) [15]: 31.0%
- ACR20 (LOCF) [16]: 84.5%
- ACR20 (NRI) [16]: 82.1%
- ACR50 (LOCF) [16]: 64.3%
- ACR70 (LOCF) [16]: 36.9%
- ACR20 (LOCF) [17]: 88.1%
- ACR20 (NRI) [17]: 84.5%
- ACR50 (LOCF) [17]: 61.9%
- ACR70 (LOCF) [17]: 36.9%
- ACR20 (LOCF) [18]: 86.9%
- ACR20 (NRI) [18]: 79.8%
- ACR50 (LOCF) [18]: 61.9%
- ACR70 (LOCF) [18]: 42.9%
- ACR20 (LOCF) [19]: 33.3%
- ACR20 (NRI) [19]: 34.5%
- ACR50 (LOCF) [19]: 7.1%
- ACR50 (NRI) [19]: 7.1%
- ACR70 (LOCF) [19]: 4.8%
- ACR70 (NRI) [19]: 4.8%
- ACR20 (LOCF) [20]: 34.5%
- ACR20 (NRI) [20]: 34.5%
- ACR50 (LOCF) [20]: 7.1%
- ACR50 (NRI) [20]: 7.1%
- ACR70 (LOCF) [20]: 4.8%
- ACR70 (NRI) [20]: 4.8%
